Measurements published in US8759522B2, “Inhibitors of protein tyrosine kinase activity” (Methylgene Inc., priority 2008, dated 2014).

Key:
[1] = system: VEGF-dependent Erk phosphorylation in HUVEC cells; experiment: VEGF-dependent Erk phosphorylation; format: cell-based; conditions: Homo sapiens, 1.5 h compound, VEGF165 150 ng/ml, phospho ERK1/2 Western blot
Excerpt: VEGF-Dependent Erk Phosphorylation
HUVEC cells were purchased from Cambrex Bio Science Walkersville, Inc and cultured according to the vendor's instructions. The full-length coding sequence of VEGF165 was cloned using the Gateway Cloning Technology (Invitrogen) for baculovirus expression Sf9 cells. VEGF165 was purified from conditioned media using a NaCl gradient elution from a HiTrap heparin column (GE Healthcare Life Sciences) followed by an imidazole gradient elution from a HiTrap chelating column (GE Healthcare Life Sciences), then buffer stored in PBS supplemented with 0.1% BSA and filter sterilized
Cells were seeded at 8000 cells/well of a 96 wells plate and grown for 48 hours. Cells were then grown overnight in serum and growth factor-free medium and exposed for 1.5 h to compounds dilutions. Following a 15 min incubation in medium, VEGF165 (150 ng/ml) cells were lysed in ice-cold lysis buffer (50 mM HEPES, pH 7.4, 150 mM NaCl, 1.5 mM MgCl2, 1% Triton X-100, 10% glycerol) containing 1 mM 4-(2 aminoethyl)benzenesulfonyl fluoride hydrochloride, 200 μM sodium orthovanadate, 1 mM sodium fluoride, 10 μg/mL leupeptin, 10 μg/mL aprotinin, 1 μg/mL pepstatin and 50 μg/mL Na-p-tosyl-L-lysine chloromethyl ketone hydrochloride and processed as Western blots to detect anti-phospho ERK1/2 (T202/Y204) (Cell Signaling Technologies).
lysates samples from single treatment wells were separated on 5-20% SDS-PAGE gels and immunobloting was performed using Immobilon polyvinylidene difluoride membranes (Amersham) according to the manufacturer's instructions.

VEGFR2 (KDR) = biological target: T1, VEGFR2 (KDR) (Homo sapiens, UniProt P35968); experiment: In vitro receptor tyrosine kinase assay (VEGF receptor KDR), DELFIA; format: biochemical; conditions: recombinant GST-VEGFR2 catalytic domain, ATP 0.6 uM, enzyme 5 nM
T1 construct: made in house; host or cells: Sf9 cells (Spodoptera frugiperda), baculovirus (Bac-to-Bac)
Excerpt: In Vitro Receptor Tyrosine Kinase Assay (VEGF Receptor KDR)
This test measures the ability of compounds to inhibit the enzymatic activity of recombinant human VEGF receptor enzymatic activity.
A 1.6-kb cDNA corresponding to the catalytic domain of VEGFR2 (KDR) (Genbank accession number AF035121 amino acid 806 to 1356) is cloned into the Pst I site of the pDEST20 Gateway vector (Invitrogen) for the production of a GST-tagged version of that enzyme. This constuct is used to generate recombinant baculovirus using the Bac-to-Bac™ system according to the manucfacturer's instructions (Invitrogen).
The GST-VEGFR2806-1356 protein is expressed in Sf9 cells (Spodoptera frugiperda) upon infection with recombinant baculovirus construct. Briefly, Sf9 cells grown in suspension and maintained in serum-free medium (Sf900 II supplemented with gentamycin) at a cell density of about 2×10^6 cells/ml are infected with the above-mentioned viruses at a multiplicity of infection (MOI) of 0.1 during 72 hours at 27° C. with agitation at 120 rpm on a rotary shaker. Infected cells are harvested by centrifugation at 398 g for 15 min. Cell pellets are frozen at −80° C. until purification is performed.
All steps described in cell extraction and purification are performed at 4° C. Frozen Sf9 cell pellets infected with the GST-VEGFR2806-1356 recombinant baculovirus are thawed and gently resuspended in Buffer A (PBS pH 7.3 supplemented with 1 μg/ml pepstatin, 2 μg/ml Aprotinin and leupeptin, 50 μg/ml PMSF, 50 μg/ml TLCK and 10 μM E64 and 0.5 mM DTT) using 3 ml of buffer per gram of cells. Suspension is Dounce homogenized and 1% Triton X-100 is added to the homogenate after which it is centrifuged at 22500 g, 30 min., 4° C. The supernatant (cell extract) is used as starting material for purification of GST-VEGFR2806-1356.
The supernatant is loaded onto a GST-agarose column (Sigma) equilibrated with PBS pH 7.3. Following a four column volume (CV) wash with PBS pH 7.3+1% Triton X-100 and 4 CV wash with buffer B (50 mM Tris pH 8.0, 20% glycerol and 100mM NaCl), bound proteins are step eluted with 5 CV of buffer B supplemented with 5 mM DTT and 15 mM glutathion. GST-VEGFR2806-1356 enriched fractions from this chromatography step are pooled based on U.V. trace i.e. fractions with high O.D.280. Final GST-VEGFR2806-1356 protein preparations concentrations are about 0.7 mg/ml with purity approximating 70%. Purified GST-VEGFR2806-1356 protein stocks are aliquoted and frozen at −80° C. prior to use in enzymatic assay.
Inhibition of VEGFR/KDR is measured in a DELFIA™ assay (Perkin Elmer). The substrate poly(Glu4, Tyr) is immobilized onto black high-binding polystyrene 96-well plates. The coated plates are washed and stored at 4° C. During the assay, the enzyme is pre-incubated with inhibitor and Mg-ATP on ice in polypropylene 96-well plates for 4 minutes, and then transferred to the coated plates. The subsequent kinase reaction takes place at 30° C. for 10-30 minutes. ATP concentrations in the assay are 0.6 uM for VEGFR/KDR (2× the Km). Enzyme concentration is 5 nM. After incubation, the kinase reactions are quenched with EDTA and the plates are washed. Phosphorylated product is detected by incubation with Europium-labeled anti-phosphotyrosine MoAb. After washing the plates, bound MoAb is detected by time-resolved fluorescence in a Gemini SpectraMax reader (Molecular Devices). Compounds are evaluated over a range of concentrations and IC50's (concentration of compounds giving 50% inhibition of enzymatic activity) are determined. In the table, “a” indicates inhibitory activity at a concentration of less than 250 nanomolar; “b” indicates inhibitory activity at a concentration ≧250 but <500 nanomolar, “c” indicates inhibitory activity at ≧500 but <1000 nanomolar; and “d” indicates inhibitory activity ≧1000 nanomolar.

T1 sequence (P35968 806-1356): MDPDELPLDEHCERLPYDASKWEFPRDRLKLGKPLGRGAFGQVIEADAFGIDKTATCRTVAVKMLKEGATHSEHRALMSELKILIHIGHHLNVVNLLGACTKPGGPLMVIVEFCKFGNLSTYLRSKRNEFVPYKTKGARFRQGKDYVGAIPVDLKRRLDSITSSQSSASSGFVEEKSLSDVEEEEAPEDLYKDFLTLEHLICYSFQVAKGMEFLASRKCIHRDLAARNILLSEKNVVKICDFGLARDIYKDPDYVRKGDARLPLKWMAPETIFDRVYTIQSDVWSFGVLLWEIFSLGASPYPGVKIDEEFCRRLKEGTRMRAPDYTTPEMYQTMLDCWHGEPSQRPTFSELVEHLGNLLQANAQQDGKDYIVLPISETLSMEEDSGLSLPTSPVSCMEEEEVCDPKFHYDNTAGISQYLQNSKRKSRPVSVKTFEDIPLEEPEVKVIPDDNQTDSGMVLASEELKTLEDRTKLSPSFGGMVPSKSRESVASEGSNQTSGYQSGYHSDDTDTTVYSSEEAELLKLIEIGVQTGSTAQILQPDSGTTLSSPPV

SMILES | IC50 [1] [nM] | IC50 (VEGFR2 (KDR)) [nM]
COCCNCc1cccc(-c2cc3nccc(Oc4ccc(NC(=O)NC5CC5)cc4F)c3s2)n1 | < 250 | < 250
COCCNCc1ccc(-c2cc3nccc(Oc4ccc(NC(=O)Nc5cccc(C(N)=O)c5)cc4F)c3s2)nc1 | < 250 | < 250
COCCNCc1ccc(-c2cc3nccc(Oc4ccc(NC(=O)Nc5cccc(S(C)(=O)=O)c5)cc4F)c3s2)nc1 | < 250 | < 250
COCCNCc1cnc(-c2cc3nccc(Oc4ccc(NC(=O)Nc5cc(C(F)(F)F)ccc5F)cc4F)c3s2)n1C | < 250 | < 250
COCCNCc1cnc(-c2cc3nccc(Oc4ccc(NC(=O)Nc5ccc(OC)cc5)cc4F)c3s2)n1C | < 250 | < 250
COCCNCc1cnc(-c2cc3nccc(Oc4ccc(NC(=O)Nc5cccc(C(N)=O)c5)cc4F)c3s2)n1C | < 250 | < 250
COCCNCc1ccc(-c2cc3nccc(Oc4ccc(NC(=O)C5CC5)cc4F)c3s2)nc1 |  | 250 to 500
COCCNCc1ccc(-c2cc3nccc(Oc4ccc(NC(=O)Nc5cccc(C(=O)OC)c5)cc4F)c3s2)nc1 |  | < 250
CNC(=O)c1cccc(NC(=O)Nc2ccc(Oc3ccnc4cc(-c5ccc(CNCCOC)cn5)sc34)c(F)c2)c1 |  | < 250
COCCNCc1ccc(-c2cc3nccc(Oc4ccc(NC(=O)N[C@@H]5CCOC5)cc4F)c3s2)nc1 | < 250 | ≥ 1000
COCCNCc1ccc(-c2cc3nccc(Oc4ccc(NC(=O)CC(=O)NC5CCC5)cc4F)c3s2)nc1 | < 250 | 250 to 500
COCCNCc1ccc(-c2cc3nccc(Oc4ccc(NC(=O)OC5CCCCC5)cc4F)c3s2)nc1 | < 250 | ≥ 1000
COCCNCc1ccc(-c2cc3nccc(Oc4ccc(NC(=O)OC5CCC5)cc4F)c3s2)nc1 | < 250 | < 250
COCCNCc1ccc(-c2cc3nccc(Oc4ccc(NC(=O)N[C@H]5CCOC5)cc4F)c3s2)nc1 | < 250 | 500 to 1000
COCCN(Cc1ccc(-c2cc3nccc(Oc4ccc(NC(=O)Nc5cccc(C(N)=O)c5)cc4F)c3s2)nc1)C(C)=O | < 250 | < 250
COCCOCCOCCOCCN(Cc1ccc(-c2cc3nccc(Oc4ccc(NC(=O)NC5CC5)cc4F)c3s2)nc1)C(C)=O | < 250 | < 250
COCCNCc1ccc(-c2cc3nccc(Oc4ccc(NC(=O)Nc5ccn(C)n5)cc4F)c3s2)nc1 | < 250 | < 250
COCCNCc1ccc(-c2cc3nccc(Oc4ccc(NC(=O)Nc5cccc(C(=O)N(C)C)c5)cc4F)c3s2)nc1 | < 250 | < 250

SMILES | IC50 [1] [nM] | IC50 (VEGFR2 (KDR)) [nM]
COCCNCc1ccc(-c2cc3nccc(Oc4ccc(NC(=O)CC(=O)Nc5cccc(C(N)=O)c5)cc4F)c3s2)nc1 | < 250 | 250 to 500
COCCNCc1ccc(-c2cc3nccc(Oc4ccc(NC(=O)CC(=O)Nc5cccc(S(C)(=O)=O)c5)cc4F)c3s2)nc1 | < 250 | < 250
COCCN(Cc1ccc(-c2cc3nccc(Oc4ccc(NC(=O)Nc5cccc(C(=O)N(C)C)c5)cc4F)c3s2)nc1)C(C)=O | < 250 | < 250
COCCNCc1ccc(-c2cc3nccc(Oc4ccc(NC(=O)NC(C)C)cc4F)c3s2)nc1 | < 250 | 500 to 1000
COCCNCc1ccc(-c2cc3nccc(Oc4ccc(NC(=O)Nc5ccc(F)cc5F)cc4F)c3s2)nc1 | < 250 | < 250
O=C(Nc1ccc(Oc2ccnc3cc(-c4ccc(C5OCCCO5)cn4)sc23)c(F)c1)NC1CC1 | < 250 | < 250
COCCN(Cc1ccc(-c2cc3nccc(Oc4ccc(NC(=O)Nc5cccc(S(C)(=O)=O)c5)cc4F)c3s2)nc1)C(=O)OC | < 250 | < 250
COC[C@H](C)NCc1ccc(-c2cc3nccc(Oc4ccc(NC(=O)NC5CC5)cc4F)c3s2)nc1 | < 250 | < 250
COCCN(Cc1ccc(-c2cc3nccc(Oc4ccc(NC(=O)NC5CC5)cc4F)c3s2)nc1)C(=O)OC |  | < 250
CCOC(=O)N(CCOC)Cc1ccc(-c2cc3nccc(Oc4ccc(NC(=O)NC5CC5)cc4F)c3s2)nc1 | < 250 | < 250
COCCOCCOCCOCCNCc1ccc(-c2cc3nccc(Oc4ccc(NC(=O)NC5CC5)cc4F)c3s2)nc1 [drawing 129] | < 250 | < 250
COCCNCc1cnc(-c2cc3nccc(Oc4ccc(NC(=O)NC5CC5)cc4F)c3s2)n1C [drawing 131] | < 250 | < 250
COCCNCc1cnc(-c2cc3nccc(Oc4ccc(NC(=O)Nc5ccc(F)cc5F)cc4F)c3s2)n1C [drawing 134] | < 250 | < 250
COCCN(Cc1cnc(-c2cc3nccc(Oc4ccc(NC(=O)NC5CC5)cc4F)c3s2)n1C)S(C)(=O)=O [drawing 137] | < 250 | < 250
COCCN(Cc1ccc(-c2cc3nccc(Oc4ccc(NC(=O)NC5CC5)cc4F)c3s2)nc1)C(=O)[C@H](N)C(C)C [drawing 143] | < 250 | < 250
COCCN(Cc1ccc(-c2cc3nccc(Oc4ccc(NC(=O)Nc5cccc(S(C)(=O)=O)c5)cc4F)c3s2)nc1)C(C)=O [drawing 152] | < 250 | < 250
COCCNCc1ccc(-c2cc3nccc(Oc4ccc(NC(=O)NC5CCC5)cc4F)c3s2)nc1 [drawing 153] | < 250 | < 250
COCCN(Cc1ccc(-c2cc3nccc(Oc4ccc(NC(=O)Nc5cccc(C(N)=O)c5)cc4F)c3s2)nc1)C(=O)OC [drawing 160] | < 250 | < 250
